Test results reported in patent publication US20250145589A1, “PYRIDINE DERIVATIVE AND USE THEREOF” (SICHUAN HUIYU PHARMACEUTICAL CO., LTD., priority 2021, published 2025).
Read-outs that look alike come from different tables or passages of the source.

Columns and labels:
[1] = target: PI3Kα (Homo sapiens (Human), UniProt P42336); experiment: Inhibition of PI3Kα efficacy assay (ADP-Glo kinase assay); format: biochemical; conditions: read-out: PI3Kα inhibitory activity (IC50)
Procedure, shortened: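 ADP-Glo luminescent detection of ADP from PI3Kα acting on PI substrate with ATP, 60 min at RT; compounds in 8-point five-fold serial dilution from 2 mM DMSO stock. IC50 from four-parameter variable-slope fit.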

[2] = target: PI3Kδ (Homo sapiens (Human), UniProt O00329); experiment: Inhibition of PI3Kδ efficacy assay (ADP-Glo kinase assay); format: biochemical; conditions: read-out: PI3Kδ inhibitory activity (IC50)
Procedure, shortened: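 Luminescent ADP-Glo readout of PI3Kδ: after a 60 min RT reaction with PI/ATP substrate, ATP depletion (40 min) and ADP detection (40 min) steps followed. Compounds tested as eight five-fold serial dilutions; inhibition rates fitted to log(inhibitor) vs. response, variable slope, for IC50.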

[3] = system: NCI-H358 cells (KRAS G12C mutant); experiment: NCI-H358 cell proliferation inhibition (CellTiter-Glo); format: cell-based; conditions: read-out: NCI-H358 (IC50)
[4] = system: MIA PaCa-2-AMGR drug-resistant cell line; experiment: MIA PaCa-2-AMGR drug-resistant cell proliferation inhibitory activity test; format: cell-based; conditions: MIA PaCa-2-AMGR drug-resistant cells, 3 days incubation, CellTiter-Glo
Procedure, shortened: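 MIA PaCa-2 line made resistant by stepwise AMG510 exposure up to 1 μM. Cells seeded at 4×10^3/well overnight, then treated with 8 concentrations (5-fold dilutions) for 3 days at 37° C, 5% CO2 in DMEM with 10% FBS + 2.5% horse serum. Viability by CellTiter-Glo luminescence; IC50 versus no-inhibitor control.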

[5] = Homo sapiens, NCI-H358, 72 h, H358 cells (G12C mutation), 3 days, Table 6

Chain of PI3Kδ (O00329 whole entry): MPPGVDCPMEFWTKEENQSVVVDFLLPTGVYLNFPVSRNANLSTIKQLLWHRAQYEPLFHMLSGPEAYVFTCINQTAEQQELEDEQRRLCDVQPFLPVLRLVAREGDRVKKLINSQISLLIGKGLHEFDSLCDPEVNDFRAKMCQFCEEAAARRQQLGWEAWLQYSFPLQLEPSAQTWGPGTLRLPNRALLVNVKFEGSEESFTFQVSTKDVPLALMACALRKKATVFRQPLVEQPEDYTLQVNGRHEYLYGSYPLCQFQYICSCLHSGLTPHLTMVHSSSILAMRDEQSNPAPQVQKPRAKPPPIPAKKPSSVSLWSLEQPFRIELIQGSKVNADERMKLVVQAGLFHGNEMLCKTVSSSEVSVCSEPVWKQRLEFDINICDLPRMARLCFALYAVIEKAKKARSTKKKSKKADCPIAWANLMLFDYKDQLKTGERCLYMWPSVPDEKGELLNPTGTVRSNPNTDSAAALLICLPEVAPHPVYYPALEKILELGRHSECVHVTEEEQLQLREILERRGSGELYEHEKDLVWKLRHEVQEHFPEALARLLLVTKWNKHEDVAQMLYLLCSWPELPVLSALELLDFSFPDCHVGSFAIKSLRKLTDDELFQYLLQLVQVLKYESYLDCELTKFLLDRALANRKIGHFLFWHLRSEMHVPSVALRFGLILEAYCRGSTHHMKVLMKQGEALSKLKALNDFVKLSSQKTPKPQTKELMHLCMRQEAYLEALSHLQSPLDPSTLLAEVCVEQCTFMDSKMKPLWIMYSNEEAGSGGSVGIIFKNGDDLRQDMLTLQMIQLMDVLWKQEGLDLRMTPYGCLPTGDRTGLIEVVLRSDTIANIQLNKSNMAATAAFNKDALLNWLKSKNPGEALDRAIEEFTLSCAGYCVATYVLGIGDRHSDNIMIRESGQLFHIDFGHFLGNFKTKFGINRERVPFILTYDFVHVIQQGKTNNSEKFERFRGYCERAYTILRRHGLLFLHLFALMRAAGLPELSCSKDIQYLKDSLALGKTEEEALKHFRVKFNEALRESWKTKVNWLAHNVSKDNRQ
Chain of PI3Kδ (P27986 whole entry partner): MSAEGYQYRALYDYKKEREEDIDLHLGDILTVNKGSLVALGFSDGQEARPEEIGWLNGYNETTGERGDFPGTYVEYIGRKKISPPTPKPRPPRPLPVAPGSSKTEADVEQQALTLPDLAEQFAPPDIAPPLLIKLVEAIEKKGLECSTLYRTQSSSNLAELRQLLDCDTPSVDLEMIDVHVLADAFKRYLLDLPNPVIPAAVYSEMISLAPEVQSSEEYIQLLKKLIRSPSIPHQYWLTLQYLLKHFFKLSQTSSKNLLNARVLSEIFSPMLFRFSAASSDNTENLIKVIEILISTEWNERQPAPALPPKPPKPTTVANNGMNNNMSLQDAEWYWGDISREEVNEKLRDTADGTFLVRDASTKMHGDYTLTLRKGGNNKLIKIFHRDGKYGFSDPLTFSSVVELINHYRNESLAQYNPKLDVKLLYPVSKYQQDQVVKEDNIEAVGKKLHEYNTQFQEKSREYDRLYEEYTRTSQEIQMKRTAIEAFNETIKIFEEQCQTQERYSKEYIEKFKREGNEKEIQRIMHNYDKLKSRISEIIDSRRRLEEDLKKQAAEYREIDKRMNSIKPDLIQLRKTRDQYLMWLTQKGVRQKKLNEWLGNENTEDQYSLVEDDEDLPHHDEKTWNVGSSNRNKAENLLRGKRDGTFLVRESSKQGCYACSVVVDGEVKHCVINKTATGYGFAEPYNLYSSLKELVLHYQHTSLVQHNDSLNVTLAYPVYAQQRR
Chain of PI3Kα (P42336 whole entry): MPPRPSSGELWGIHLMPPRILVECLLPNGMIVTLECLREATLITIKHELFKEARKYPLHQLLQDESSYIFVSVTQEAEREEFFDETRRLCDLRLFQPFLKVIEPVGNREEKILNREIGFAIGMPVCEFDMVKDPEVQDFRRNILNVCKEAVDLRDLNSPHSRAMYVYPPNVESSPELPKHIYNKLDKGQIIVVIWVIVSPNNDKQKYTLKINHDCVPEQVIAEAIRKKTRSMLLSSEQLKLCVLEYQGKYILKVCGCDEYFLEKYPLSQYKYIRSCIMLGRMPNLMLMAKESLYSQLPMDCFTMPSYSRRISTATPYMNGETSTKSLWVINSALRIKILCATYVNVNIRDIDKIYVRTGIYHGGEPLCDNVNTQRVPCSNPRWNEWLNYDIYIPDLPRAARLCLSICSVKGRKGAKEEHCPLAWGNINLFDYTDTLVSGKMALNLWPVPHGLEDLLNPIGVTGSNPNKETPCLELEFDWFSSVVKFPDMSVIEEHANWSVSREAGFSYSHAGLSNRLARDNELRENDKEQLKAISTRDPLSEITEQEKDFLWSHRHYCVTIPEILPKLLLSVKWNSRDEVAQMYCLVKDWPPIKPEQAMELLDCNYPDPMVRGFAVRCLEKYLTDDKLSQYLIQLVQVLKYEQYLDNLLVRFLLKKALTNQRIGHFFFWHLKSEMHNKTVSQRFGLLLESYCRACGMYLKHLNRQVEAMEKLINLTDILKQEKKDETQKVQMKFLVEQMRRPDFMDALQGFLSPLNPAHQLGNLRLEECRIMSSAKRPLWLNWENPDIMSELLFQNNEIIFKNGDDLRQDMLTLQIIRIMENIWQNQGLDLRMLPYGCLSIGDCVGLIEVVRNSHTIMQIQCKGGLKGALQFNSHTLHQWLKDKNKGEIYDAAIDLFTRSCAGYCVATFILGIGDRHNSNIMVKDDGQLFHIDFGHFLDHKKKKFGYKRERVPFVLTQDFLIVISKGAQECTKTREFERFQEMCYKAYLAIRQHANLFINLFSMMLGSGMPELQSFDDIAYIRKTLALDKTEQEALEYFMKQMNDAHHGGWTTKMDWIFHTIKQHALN
Chain of PI3Kα (P27986 whole entry partner): as the sequence (P27986 whole entry partner) above

Compound | IC50 ([1]; Table 2) [nM] | IC50 ([2]; Table 2) [nM] | IC50 [3, 5] [nM] | IC50 ([4]; 72 h) [nM] | IC50 ([1]; Table 4) [nM] | IC50 ([2]; Table 4) [nM] | further results
COc1ncc(-c2ccc3ncnc(N4CCN(C(=O)/C=C/C(C)=O)C[C@@H]4C)c3c2)cc1NS(=O)(=O)c1c(F)cccc1F [Example 46, (S,E)-2,6-difluoro-N-(2-methoxy-5-(4-(2-methyl-4-(4-oxopent-2-enoyl)piperazin-1-yl)quinazolin-6-yl)pyridin-3-yl) benzenesulfonamide] | 1.7 | 36.3 | 29.9 | 77.4 |  |  | 
COc1ncc(-c2ccc3ncnc(N4CCN(C(=O)/C=C/C(C)=O)CC4)c3c2)cc1NS(=O)(=O)c1ccc(C)cc1F [Example 111] | 8.8 | 23.2 |  |  |  |  | IC50 ([3]; H358 cells (G12C mutation), 3 days, Table 6): 15.8 nM; IC50 [4]: 90.1 nM
COc1ncc(-c2ccc3ncnc(N4CCC5(CN(C(=O)/C=C/C(C)=O)C5)C4)c3c2)cc1NS(=O)(=O)c1c(F)cccc1F [Example 42] |  | 16.5 |  |  |  |  | IC50 [1]: 1.5 nM; IC50 [3]: 79 nM; IC50 [4]: 185 nM
COc1ncc(-c2ccc3ncnc(N4CCN(C(=O)/C=C/C(C)=O)CC4)c3c2)cc1NS(=O)(=O)c1c(F)cc(F)cc1F [Example 99, (E)-2,4,6-trifluoro-N-(2-methoxy-5-(4-(4-(4-oxopent-2-enoyl)piperazin-1-yl)quinazolin-6-yl)pyridin-3-yl)benzenesulfonamide] | 6 | 7.9 | 9.6 | 72.9 |  |  | 
COc1ncc(-c2ccc3ncnc(C4CCN(C(=O)/C=C/C(C)=O)CC4)c3c2)cc1NS(=O)(=O)c1ccccc1F [Example 204, (E)-2-fluoro-N-(2-methoxy-5-(4-(1-(4-oxopent-2-enoyl)piperidin-4-yl)quinazolin-6-yl)pyridin-3-yl)benzenesulfonamide] |  |  | 25.2 | 45.8 | 3.3 | 17 | 
COc1ncc(-c2ccc3ncnc(N4C[C@@H](C)N(C(=O)/C=C/C(C)=O)C[C@@H]4C)c3c2)cc1NS(=O)(=O)c1ccc(F)cc1F [Example 15, N-(5-(4-((2S,5R)-2,5-dimethyl-4-((E)-4-oxopent-2-enoyl)piperazin-1-yl)quinazolin-6-yl)-2-methoxypyridin-3-yl)-2,4-difluorobenzenesulfonamide] |  |  | 19.9 | 243 |  |  | IC50 ([1]; Table 1): 10.2 nM; IC50 ([2]; Table 1): 130 nM
COc1ncc(-c2ccc3ncnc(N4CCN(C(=O)/C=C/C(C)=O)CC4)c3c2)cc1NS(=O)(=O)c1ccc(F)cc1 [Example 92, (E)-4-fluoro-N-(2-methoxy-5-(4-(4-(4-oxopent-2-enoyl)piperazin-1-yl)quinazolin-6-yl)pyridin-3-yl)benzenesulfonamide] | 6.4 | 51.1 | 16.7 | 56.9 |  |  | 
COc1ncc(-c2ccc3ncnc(C4CCN(C(=O)/C=C/C(C)=O)CC4)c3n2)cc1NS(=O)(=O)c1sc(C)nc1C [Example 230, (E)-N-(2-methoxy-5-(4-(1-(4-oxopent-2-enoyl)piperidin-4-yl)pyrido[3,2-d]pyrimidin-6-yl)pyridin-3-yl)-2,4-dimethylthiazol-5-sulfonamide] |  |  | 6.9 | 35.3 | 2.6 | 4.7 | 
COc1ncc(-c2ccc3ncnc(N4CCN(C(=O)/C=C/C(C)=O)[C@@H](CC#N)C4)c3c2)cc1NS(=O)(=O)c1c(F)cccc1F [Example 116, (S,E)-N-(5-(4-(3-(cyanomethyl)-4-(4-oxopent-2-enoyl)piperazin-1-yl)quinazolin-6-yl)-2-methoxypyridin-3-yl)-2,6-difluorobenzenesulfonamide] | 1.8 | 27 | 95.9 | 462 |  |  | 
COc1ncc(-c2ccc3ncnc(C4=CCN(C(=O)/C=C/C(C)=O)CC4)c3c2)cc1NS(=O)(=O)c1c(F)cccc1Cl [Example 202, (E)-2-chloro-6-fluoro-N-(2-methoxy-5-(4-(1-(4-oxopent-2-enoyl)-1,2,3,6-tetrahydropyridin-4-yl)quinazolin-6-yl)pyridin-3-yl)benzene-sulfonamide] |  |  | 5.2 | 13 | 1.9 | 27.9 | 
COc1ncc(-c2ccc3ncnc(N4CCN(C(=O)/C=C/C(C)=O)CC4)c3n2)cc1NS(=O)(=O)c1cc(F)ccc1F [Example 217, (E)-2,5-difluoro-N-(2-methoxy-5-(4-(4-(4-oxopent-2-enoyl)piperazin-1-yl)pyrido[3,2-d]pyrimidin-6-yl)pyridin-3-yl) benzene-sulfonamide] |  |  | 27 | 21.4 | 0.41 | 10.6 | 
COc1ncc(-c2ccc3ncnc(N4CCN(C(=O)/C=C/C(C)=O)CC4)c3c2)cc1NS(=O)(=O)c1ccc(C(F)(F)F)cc1F [Example 124, (E)-2-fluoro-N-(2-methoxy-5-(4-(4-(4-oxopent-2-enoyl)piperazin-1-yl)quinazolin-6-yl)pyridin-3-yl)-4-(trifluoromethyl)benzenesulfonamide] | 4.4 | 61.4 | 19.7 | 83.9 |  |  | 
COc1ncc(-c2ccc3ncnc(N4CCC5(CC4)CN(C(=O)/C=C/C(C)=O)C5)c3c2)cc1NS(=O)(=O)c1c(F)cccc1F [Example 49, (E)-2,6-difluoro-N-(2-methoxy-5-(4-(2-(4-oxopent-2-enoyl)-2,7-diazaspiro[3.5]nonan-7-yl)quinazolin-6-yl)pyridin-3-yl) benzenesulfonamide] | 2.6 | 14.9 | 32 | 62.4 |  |  | 
COc1ncc(-c2ccc3ncnc(N4CCN(C(=O)/C=C/C(C)=O)CC4)c3n2)cc1NS(=O)(=O)c1c(F)cccc1F [Example 131, (E)-2,6-difluoro-N-(2-methoxy-5-(4-(4-(4-oxopent-2-enoyl)piperazin-1-yl)pyrido[3,2-d]pyrimidin-6-yl)pyridin-3-yl)benzenesulfonamide] |  |  | 5.2 | 29.6 |  |  | IC50 ([1]; Table 3): 1.6 nM; IC50 ([2]; Table 3): 13.7 nM
COc1ncc(-c2ccc3ncnc(N4CCC5(CC4)CN(C(=O)/C=C/C(C)=O)C5)c3c2)cc1NS(=O)(=O)c1sc(C)nc1C [Example 178, (E)-N-(2-methoxy-5-(4-(2-(4-oxopent-2-enoyl)-2,7-diazaspiro[3.5]nonan-7-yl)quinazolin-6-yl)pyridin-3-yl)-2,4-dimethyl-thiazole-5-sulfonamide] |  |  | 25.3 | 34 | 20.5 | 9.2 | 
CC(=O)/C=C/C(=O)N1CCN(c2ncnc3ccc(-c4cnc(OCC(F)(F)F)c(NS(=O)(=O)c5ccc(F)cc5F)c4)cc23)CC1 [Example 159, (E)-2,4-difluoro-N-(5-(4-(4-(4-oxopent-2-enoyl)piperazin-1-yl)quinazolin-6-yl)-2-(2,2,2-trifluoroethoxy)pyridin-3-yl)benzenesulfonamide] |  |  | 172 | 226 | 11.8 | 91.7 | 
COc1ncc(-c2ccc3ncnc(N4CCN(C(=O)/C=C/C(C)=O)CC4)c3c2)cc1NS(=O)(=O)c1ccc(Cl)cc1F [Example 177, (E)-4-chloro-2-fluoro-N-(2-methoxy-5-(4-(4-(4-oxopent-2-enoyl)piperazin-1-yl)quinazolin-6-yl)pyridin-3-yl)benzene-sulfonamide] |  |  | 36.1 | 36.6 | 5 | 19.1 | 
